Data taken from ChEMBL document CHEMBL3352110, “Design, synthesis and in vitro evaluation of novel dehydroabietic acid derivatives containing a dipeptide moiety as potential anticancer agents” (Eur J Med Chem, 2015).
pIC50: −log10 of the molar value. Active and inactive are the calls of the source. The calls are words filed in the database; no cut-off is given here.

Key:
HeLa [1] = test: Cytotoxicity against human HeLa cells after 48 hrs by MTT assay; assay type: functional, cell-based
NCI-H460 = test: Cytotoxicity against human NCI-H460 cells after 48 hrs by MTT assay; assay type: functional, cell-based; conditions: NCI-H460, 48 h
MGC-803 = test: Cytotoxicity against human MGC803 cells after 48 hrs by MTT assay; assay type: functional, cell-based; conditions: MGC-803, 48 h
[2] = Cytotoxicity against human HL7702 cells after 48 hrs by MTT assay; assay type: functional, cell-based; conditions: L02, 48 h
HeLa [3] = test: Induction of apoptosis in human HeLa cells assessed as chromatin condensation at 15 uM after 12 to 24 hrs by acridine orange/ethidium bromide staining-based assay; assay type: functional, cell-based
HeLa [4] = test: Induction of apoptosis in human HeLa cells assessed as chromatin fragmentation at 15 uM after 12 to 24 hrs by acridine orange/ethidium bromide staining-based assay relative to control; assay type: functional, cell-based
HeLa [5] = test: Induction of apoptosis in human HeLa cells at 15 uM after 12 to 24 hrs by Hoechst 33258 staining-based assay relative to control; assay type: functional, cell-based
HeLa [6] = test: Induction of apoptosis in human HeLa cells assessed as change in mitochondrial membrane potential at 15 uM after 12 to 24 hrs by JC-1 staining-based assay relative to control; assay type: functional, cell-based
HeLa [7] = test: Induction of apoptosis in human HeLa cells assessed as DNA fragmentation at 15 uM after 12 to 24 hrs by TUNEL assay relative to control; assay type: functional, cell-based
HeLa [8] = test: Induction of apoptosis in human HeLa cells assessed as early apoptotic cells at 10 uM after 12 hrs by Anexin-V-FITC/propidium iodide staining-based flow cytometry (reference value: 1.40%); assay type: functional
HeLa [9] = test: Induction of apoptosis in human HeLa cells assessed as early apoptotic cells at 15 uM after 12 hrs by Anexin-V-FITC/propidium iodide staining-based flow cytometry (reference value: 1.40%); assay type: functional
HeLa [10] = test: Induction of apoptosis in human HeLa cells assessed as late apoptotic cells at 10 uM after 12 hrs by Anexin-V-FITC/propidium iodide staining-based flow cytometry (reference value: 0.04%); assay type: functional
HeLa [11] = test: Induction of apoptosis in human HeLa cells assessed as late apoptotic cells at 15 uM after 12 hrs by Anexin-V-FITC/propidium iodide staining-based flow cytometry (reference value: 0.04%); assay type: functional
HeLa [12] = test: Induction of apoptosis in human HeLa cells assessed as dead cells at 10 uM after 12 hrs by Anexin-V-FITC/propidium iodide staining-based flow cytometry (reference value: 1.40%); assay type: functional
HeLa [13] = test: Induction of apoptosis in human HeLa cells assessed as dead cells at 15 uM after 12 hrs by Anexin-V-FITC/propidium iodide staining-based flow cytometry (reference value: 1.40%); assay type: functional
HeLa [14] = test: Induction of apoptosis in human HeLa cells assessed as viable cells at 10 uM after 12 hrs by Anexin-V-FITC/propidium iodide staining-based flow cytometry (reference value: 97.2%); assay type: functional; conditions: read-out: Activity
HeLa [15] = test: Induction of apoptosis in human HeLa cells assessed as viable cells at 15 uM after 12 hrs by Anexin-V-FITC/propidium iodide staining-based flow cytometry (reference value: 97.2%); assay type: functional; conditions: read-out: Activity
HeLa [16] = test: Induction of apoptosis in human HeLa cells assessed as apoptosis ratio at 10 uM after 12 hrs by Anexin-V-FITC/propidium iodide staining-based flow cytometry (reference value: 1.44%); assay type: functional
HeLa [17] = test: Induction of apoptosis in human HeLa cells assessed as apoptosis ratio at 15 uM after 12 hrs by Anexin-V-FITC/propidium iodide staining-based flow cytometry (reference value: 1.44%); assay type: functional
HeLa [18] = test: Cell cycle arrest in human HeLa cells assessed as accumulation at G1 phase at 10 uM after 48 hrs by propidium iodide stainin-based flow cytometry (reference value: 31.44%); assay type: functional
HeLa [19] = test: Cell cycle arrest in human HeLa cells assessed as accumulation at G1 phase at 15 uM after 48 hrs by propidium iodide stainin-based flow cytometry (reference value: 31.44%); assay type: functional
HeLa [20] = test: Cell cycle arrest in human HeLa cells assessed as accumulation at G2 phase at 10 uM after 48 hrs by propidium iodide stainin-based flow cytometry (reference value: 5.84%); assay type: functional
HeLa [21] = test: Cell cycle arrest in human HeLa cells assessed as accumulation at G2 phase at 15 uM after 48 hrs by propidium iodide stainin-based flow cytometry (reference value: 5.84%); assay type: functional
HeLa [22] = test: Cell cycle arrest in human HeLa cells assessed as accumulation at S phase at 10 uM after 48 hrs by propidium iodide stainin-based flow cytometry (reference value: 67.72%); assay type: functional
HeLa [23] = test: Cell cycle arrest in human HeLa cells assessed as accumulation at S phase at 15 uM after 48 hrs by propidium iodide stainin-based flow cytometry (reference value: 67.72%); assay type: functional
HeLa [24] = test: Induction of cytochrome C release in human HeLa cells assessed as karyopyknosis at 10 to 15 uM after 12 hrs by fluorescence microscopy relative to control; assay type: functional, cell-based
HeLa [25] = test: Induction of cytochrome C release in human HeLa cells assessed as nuclei conglomeration at 10 to 15 uM after 12 hrs by fluorescence microscopy relative to control; assay type: functional, cell-based
HeLa [26] = test: Induction of apoptosis in human HeLa cells assessed as ROS generation at 10 to 15 uM after 12 hrs by DCF-Da staining-based fluorescence microscopy relative to control; assay type: functional, cell-based
HeLa [27] = test: Induction of apoptosis in human HeLa cells assessed as caspase-3 activation by spectrophotometry relative to control; assay type: functional, cell-based; conditions: TDE = time-dependent effect
HeLa [28] = test: Induction of apoptosis in human HeLa cells assessed as caspase-9 activation by spectrophotometry relative to control relative to control; assay type: functional, cell-based; conditions: TDE = time-dependent effect
HeLa [29] = test: Induction of apoptosis in human HeLa cells assessed as increase in caspase-3 expression at 10 to 15 uM by Western blotting analysis relative to control; assay type: functional, cell-based
HeLa [30] = test: Induction of apoptosis in human HeLa cells assessed as increase in caspase-8 expression at 10 to 15 uM by Western blotting analysis relative to control; assay type: functional, cell-based
HeLa [31] = test: Induction of apoptosis in human HeLa cells assessed as increase in cytochrome c expression at 10 to 15 uM by Western blotting analysis relative to control; assay type: functional, cell-based
HeLa [32] = test: Induction of apoptosis in human HeLa cells assessed as increase in Bax expression at 10 to 15 uM by Western blotting analysis relative to control; assay type: functional, cell-based
HeLa [33] = test: Induction of apoptosis in human HeLa cells assessed as reduction in Bcl2 expression by Western blotting analysis relative to control; assay type: functional, cell-based

CC(C)c1ccc2c(c1)C(=O)C[C@H]1[C@](C)(C(=O)N[C@@H](Cc3ccccc3)C(=O)Nc3ccccc3Cl)CCC[C@]21C
pIC50 (HeLa [1]): 5.11 | pIC50 (NCI-H460): 4.61 | pIC50 (MGC-803): 5.01 | pIC50 [2]: 4.27 | Activity (HeLa [3]): Active | Activity (HeLa [4]): Active | Activity (HeLa [5]): Active | Activity (HeLa [6]): Active | Activity (HeLa [7]): Active | Activity (HeLa [8]): 13.6% | Activity (HeLa [9]): 21.8% | Activity (HeLa [10]): 6.93% | Activity (HeLa [11]): 13.7% | Activity (HeLa [12]): 0.677% | Activity (HeLa [13]): 0.612% | viability at 10 µM (HeLa [14]): 78.8% | viability at 15 µM (HeLa [15]): 64% | Activity (HeLa [16]): 20.53% | Activity (HeLa [17]): 34.5% | Activity (HeLa [18]): 27.79% | Activity (HeLa [19]): 15.49% | Activity (HeLa [20]): 4.8% | Activity (HeLa [21]): 1.47% | Activity (HeLa [22]): 67.41% | Activity (HeLa [23]): 83.05% | Activity (HeLa [24]): Active | Activity (HeLa [25]): Active | Activity (HeLa [26]): Active | Activity (HeLa [27]): tde | Activity (HeLa [28]): tde | Activity (HeLa [29]): Active | Activity (HeLa [30]): Active | Activity (HeLa [31]): Active | Activity (HeLa [32]): Active | Activity (HeLa [33]): Dose-dependent effect
